Measurements from PubChem BioAssay (NCI).
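Each compound was tested at five concentrations against cells in 96-well plates for 48 hours. At the TGI there is no net growth.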

Columns and labels:
Assay in all cases: growth of human tumour cells (NCI), 48 h
[1] = system: MDA-MB-231 breast
[2] = system: HOP-92 NSCLC
[3] = system: A549 NSCLC
[4] = system: RPMI-8226 leukemia
[5] = system: U251 CNS
[6] = system: HCT-15 colon
[7] = system: NCI-H460 lung
[8] = system: NCI-H522 lung
[9] = system: SK-MEL-28 melanoma
[10] = system: K-562 leukemia
[11] = system: CAKI-1 renal
[12] = system: MDA-MB-435
[13] = system: A498 renal
[14] = system: SF-268 CNS
[15] = system: COLO 205 colon
[16] = system: OVCAR-4 ovarian
[17] = system: SW-620 colon
[18] = system: T-47D breast
[19] = system: SK-OV-3 ovarian
[20] = system: SNB-75 CNS
[21] = system: EKVX NSCLC
[22] = system: SK-MEL-2 melanoma
[23] = system: HT29 colon
[24] = system: RXF 393 renal
[25] = system: KM12 colon
[26] = system: MALME-3M melanoma
[27] = system: MOLT-4 leukemia
[28] = system: NCI/ADR-RES ovarian
[29] = system: OVCAR-3 ovarian
[30] = system: M14 melanoma
[31] = system: OVCAR-8 ovarian
[32] = system: NCI-H226 lung
[33] = system: UACC-257 melanoma
[34] = system: 786-0 renal
[35] = system: HCC-2998 colon
[36] = system: NCI-H23 lung
[37] = system: DU-145 prostate
[38] = system: UACC-62 melanoma
[39] = system: HCT-116 colon
[40] = system: CCRF-CEM leukemia
[41] = system: HL-60(TB) leukemia
[42] = system: MDA-N
[43] = system: HOP-62 NSCLC
[44] = system: SK-MEL-5 melanoma
[45] = system: LOX IMVI melanoma
[46] = system: SNB-19 CNS
[47] = system: HS 578T breast
[48] = system: PC-3 prostate
[49] = system: IGROV1 ovarian
[50] = system: OVCAR-5 ovarian
[51] = system: MCF7 breast
[52] = system: BT-549 breast
[53] = system: SN12C renal
[54] = system: ACHN renal
[55] = system: SF-295 CNS
[56] = system: TK-10 renal
[57] = system: UO-31 renal
[58] = system: SF-539 CNS

Compound `C[C@]12CC(c3ccccc3O1)C(C(N)=O)C(=O)N2` (stereo partly specified) has a TGI [1] greater than 100 µM, a TGI [2] greater than 100 µM and a TGI [3] greater than 100 µM. It also gave a TGI [4] greater than 100 µM, a TGI [5] greater than 100 µM and a TGI [6] greater than 100 µM. It also gave a TGI [7] greater than 100 µM, a TGI [8] greater than 100 µM and a TGI [9] greater than 100 µM. For the same compound, the TGI [10] was greater than 100 µM, the TGI [11] was greater than 100 µM and the TGI [12] was greater than 100 µM. It also gave a TGI [13] greater than 100 µM, a TGI [14] greater than 100 µM and a TGI [15] greater than 100 µM. It also gave a TGI [16] greater than 100 µM, a TGI [17] greater than 100 µM and a TGI [18] greater than 100 µM. It also gave a TGI [19] greater than 100 µM, a TGI [20] greater than 100 µM and a TGI [21] greater than 100 µM. The TGI [22] was greater than 100 µM, the TGI [23] was greater than 100 µM and the TGI [24] was greater than 100 µM. For the same compound, the TGI [25] was greater than 100 µM, the TGI [26] was greater than 100 µM and the TGI [27] was greater than 100 µM. It also gave a TGI [28] greater than 100 µM, a TGI [29] greater than 100 µM and a TGI [30] greater than 100 µM. It also gave a TGI [31] greater than 100 µM, a TGI [32] greater than 100 µM and a TGI [33] greater than 100 µM. For the same compound, the TGI [34] was greater than 100 µM, the TGI [35] was greater than 100 µM and the TGI [36] was greater than 100 µM. For the same compound, the TGI [37] was greater than 100 µM, the TGI [38] was greater than 100 µM and the TGI [39] was greater than 100 µM. For the same compound, the TGI [40] was greater than 100 µM, the TGI [41] was greater than 100 µM and the TGI [42] was greater than 100 µM. It also gave a TGI [43] greater than 100 µM, a TGI [44] greater than 100 µM and a TGI [45] greater than 100 µM. For the same compound, the TGI [46] was greater than 100 µM, the TGI [47] was greater than 100 µM and the TGI [48] was greater than 100 µM. The TGI [49] was greater than 100 µM, the TGI [50] was greater than 100 µM and the TGI [51] was greater than 100 µM. For the same compound, the TGI [52] was greater than 100 µM, the TGI [53] was greater than 100 µM and the TGI [54] was greater than 100 µM.

In the case of `OCCNc1ncnc2nc[nH]c12`, the TGI [1] is reported as greater than 100 µM, the TGI [2] is reported as greater than 100 µM and the TGI [3] is reported as greater than 100 µM. It also gave a TGI [4] greater than 100 µM, a TGI [5] greater than 100 µM and a TGI [6] greater than 100 µM. It also gave a TGI [7] greater than 100 µM, a TGI [8] greater than 100 µM and a TGI [9] greater than 100 µM. For the same compound, the TGI [55] was greater than 100 µM, the TGI [10] was greater than 100 µM and the TGI [56] was greater than 100 µM. The TGI [11] was greater than 100 µM, the TGI [12] was greater than 100 µM and the TGI [13] was greater than 100 µM. For the same compound, the TGI [14] was greater than 100 µM, the TGI [15] was greater than 100 µM and the TGI [16] was greater than 100 µM. It also gave a TGI [17] greater than 100 µM, a TGI [18] greater than 100 µM and a TGI [19] greater than 100 µM. For the same compound, the TGI [20] was greater than 100 µM, the TGI [21] was greater than 100 µM and the TGI [57] was greater than 100 µM. The TGI [22] was greater than 100 µM, the TGI [23] was greater than 100 µM and the TGI [24] was greater than 100 µM. The TGI [25] was greater than 100 µM, the TGI [26] was greater than 100 µM and the TGI [27] was greater than 100 µM. The TGI [28] was greater than 100 µM, the TGI [29] was greater than 100 µM and the TGI [30] was greater than 100 µM. It also gave a TGI [31] greater than 100 µM, a TGI [32] greater than 100 µM and a TGI [33] greater than 100 µM. It also gave a TGI [34] greater than 100 µM, a TGI [35] greater than 100 µM and a TGI [36] greater than 100 µM. The TGI [37] was greater than 100 µM, the TGI [38] was greater than 100 µM and the TGI [39] was greater than 100 µM. For the same compound, the TGI [41] was greater than 100 µM, the TGI [42] was greater than 100 µM and the TGI [43] was greater than 100 µM. It also gave a TGI [44] greater than 100 µM, a TGI [45] greater than 100 µM and a TGI [46] greater than 100 µM. It also gave a TGI [47] greater than 100 µM, a TGI [48] greater than 100 µM and a TGI [49] greater than 100 µM. For the same compound, the TGI [50] was greater than 100 µM, the TGI [51] was greater than 100 µM and the TGI [52] was greater than 100 µM. For the same compound, the TGI [53] was greater than 100 µM and the TGI [54] was greater than 100 µM.

Work on `CC1(C)OCC(C2CCC3(C)C4=CCC5C(C)(C)C(O)CCC5(C)C4CCC23C)CC(O)C1O` (stereo unspecified) yielded a TGI [1] of 35.7 µM, a TGI [2] of 36.4 µM and a TGI [3] of 36 µM. It also gave a TGI [4] of 48.6 µM, a TGI [58] of 39.9 µM and a TGI [5] of 31.3 µM. It also gave a TGI [6] of 32.8 µM, a TGI [7] of 41.4 µM and a TGI [8] of 36.3 µM. For the same compound, the TGI [9] was 32.6 µM, the TGI [55] was 35.6 µM and the TGI [10] was 21.6 µM. For the same compound, the TGI [56] was 28.7 µM, the TGI [11] was 27.5 µM and the TGI [12] was 31.8 µM. For the same compound, the TGI [13] was 42.6 µM, the TGI [14] was 37.6 µM and the TGI [15] was 43.5 µM. For the same compound, the TGI [16] was 32.3 µM, the TGI [17] was 37.4 µM and the TGI [18] was 23.8 µM. It also gave a TGI [19] of 35.5 µM, a TGI [20] of 29 µM and a TGI [21] of 28.5 µM. For the same compound, the TGI [57] was 33.2 µM, the TGI [22] was 32.5 µM and the TGI [23] was 33.4 µM. For the same compound, the TGI [25] was 28.1 µM, the TGI [26] was 30.6 µM and the TGI [27] was 35.9 µM. The TGI [28] was 39.5 µM, the TGI [29] was 30 µM and the TGI [30] was 35.4 µM. For the same compound, the TGI [31] was 33.3 µM, the TGI [32] was 32.9 µM and the TGI [33] was 30.6 µM. The TGI [34] was 28.7 µM, the TGI [35] was 32.3 µM and the TGI [36] was 38.2 µM. The TGI [37] was 29 µM, the TGI [38] was 29.1 µM and the TGI [39] was 27.3 µM. It also gave a TGI [40] of 68.7 µM, a TGI [41] of 56.7 µM and a TGI [42] of 34.5 µM. For the same compound, the TGI [44] was 28.7 µM, the TGI [45] was 31.7 µM and the TGI [46] was 29.5 µM. It also gave a TGI [47] of 44.7 µM, a TGI [48] of 26.6 µM and a TGI [49] of 33.1 µM. For the same compound, the TGI [50] was 36.2 µM, the TGI [51] was 47.3 µM and the TGI [52] was 32.9 µM. For the same compound, the TGI [53] was 36.2 µM and the TGI [54] was 45.9 µM.
